Data taken from PubChem BioAssay (NCI).
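96-well plates; 48 h exposure; 5 concentrations. Endpoints by linear interpolation between flanking doses. Not reached: highest tested concentration assigned. At the TGI there is no net growth.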

Assays:
Test in all cases: inhibition of tumour cell growth, NCI panel, 48 h
OVCAR-4 ovarian = tested on: OVCAR-4 ovarian
OVCAR-8 ovarian = tested on: OVCAR-8 ovarian
SK-OV-3 ovarian = tested on: SK-OV-3 ovarian
SK-MEL-2 melanoma = tested on: SK-MEL-2 melanoma
SN12C renal = tested on: SN12C renal
SF-295 CNS = tested on: SF-295 CNS
HOP-62 NSCLC = tested on: HOP-62 NSCLC
SF-268 CNS = tested on: SF-268 CNS
MOLT-4 leukemia = tested on: MOLT-4 leukemia
SNB-75 CNS = tested on: SNB-75 CNS
LOX IMVI melanoma = tested on: LOX IMVI melanoma
OVCAR-3 ovarian = tested on: OVCAR-3 ovarian
KM12 colon = tested on: KM12 colon
NCI-H460 lung = tested on: NCI-H460 lung
LXFL 529 NSCLC = tested on: LXFL 529 NSCLC
UO-31 renal = tested on: UO-31 renal
NCI-H522 lung = tested on: NCI-H522 lung
UACC-62 melanoma = tested on: UACC-62 melanoma
786-0 renal = tested on: 786-0 renal
KM20L2 colon = tested on: KM20L2 colon
HT29 colon = tested on: HT29 colon
CAKI-1 renal = tested on: CAKI-1 renal
SK-MEL-28 melanoma = tested on: SK-MEL-28 melanoma
DMS 273 small cell lung = tested on: DMS 273 small cell lung
CCRF-CEM leukemia = tested on: CCRF-CEM leukemia
EKVX NSCLC = tested on: EKVX NSCLC
UACC-257 melanoma = tested on: UACC-257 melanoma
M14 melanoma = tested on: M14 melanoma
HL-60(TB) leukemia = tested on: HL-60(TB) leukemia
ACHN renal = tested on: ACHN renal
HCC-2998 colon = tested on: HCC-2998 colon
HOP-92 NSCLC = tested on: HOP-92 NSCLC
DLD-1 colon = tested on: DLD-1 colon
K-562 leukemia = tested on: K-562 leukemia
A549 NSCLC = tested on: A549 NSCLC
HOP-18 NSCLC = tested on: HOP-18 NSCLC
DMS 114 small cell lung = tested on: DMS 114 small cell lung
HCT-15 colon = tested on: HCT-15 colon
SW-620 colon = tested on: SW-620 colon
U251 CNS = tested on: U251 CNS
A498 renal = tested on: A498 renal
COLO 205 colon = tested on: COLO 205 colon
MALME-3M melanoma = tested on: MALME-3M melanoma
RXF 393 renal = tested on: RXF 393 renal
NCI-H23 lung = tested on: NCI-H23 lung
IGROV1 ovarian = tested on: IGROV1 ovarian
HCT-116 colon = tested on: HCT-116 colon
OVCAR-5 ovarian = tested on: OVCAR-5 ovarian
SNB-78 CNS = tested on: SNB-78 CNS
TK-10 renal = tested on: TK-10 renal
M19-MEL melanoma = tested on: M19-MEL melanoma
RXF-631 renal = tested on: RXF-631 renal
NCI-H226 lung = tested on: NCI-H226 lung
SF-539 CNS = tested on: SF-539 CNS
SK-MEL-5 melanoma = tested on: SK-MEL-5 melanoma
SNB-19 CNS = tested on: SNB-19 CNS
SR leukemia = tested on: SR leukemia
RPMI-8226 leukemia = tested on: RPMI-8226 leukemia
XF 498 CNS = tested on: XF 498 CNS

Measured: TGI

CC1=CC(=O)N(c2c(C)cccc2Cl)C(C)N1 (centres undefined)
not listed: SR leukemia | RPMI-8226 leukemia | XF 498 CNS
> 100 µM: all other assays above

O=[N+]([O-])c1cccc(C2=NOC3C4CCC(C4)C23)c1 (centres undefined)
not listed: LOX IMVI melanoma | UACC-62 melanoma | KM20L2 colon | CAKI-1 renal | CCRF-CEM leukemia | EKVX NSCLC | HL-60(TB) leukemia | K-562 leukemia | RXF 393 renal | SNB-78 CNS | SNB-19 CNS | XF 498 CNS
> 100 µM: all other assays above

O=C1NC(=O)C2C1N(Cc1ccccc1)C(=O)N2Cc1ccccc1 (centres undefined)
not listed: OVCAR-8 ovarian | SK-MEL-2 melanoma | DMS 273 small cell lung | HOP-18 NSCLC
> 100 µM: all other assays above

O=C(O)C1=C(C(=O)Nc2ccc(NC(=O)C3=C(C(=O)O)C4C=CC3C4)cc2)C2C=CC1C2
not listed: NCI-H522 lung | RXF-631 renal | NCI-H226 lung
> 100 µM: all other assays above
